Measured values as given in US5230998A, “Method for the prescreening of drugs targeted to the V3 hypervariable loop of the HIV-1 envelope glycoprotein gp 120” (priority 1991, dated 1993).
“Also recorded” adds a separate entry of the source.

What was measured:
CD4 receptor = conditions: literature; listed as ATA; cited from earlier work
[1] = molecular target: T1, V3 hypervariable loop peptide (303-338) (Human immunodeficiency virus type 1 BH10, UniProt P03375); test: Attachment of ATA determined by anti-ATA antibodies (double antibody RIA); format: binding, HIV-1 BH 10; conditions: FIG. 1C, FIG. 2
T1 construct: cut from Env gp160
Method: (§1) Antibodies to ATA were detected by double antibody RIA using wells coated with an ATA-ovalbumin conjugate. This conjugate was prepared in the same way as described for the ATA-BSA conjugate. Dilution endpoints of anti-ATA antibodies, determined as described by Ritchie, D. G., Nickerson, J. M., and Fuller, G. M. (1983), "Two Simple Programs for the Analysis of Data from Enzyme-linked Immunosorbent Assays (ELISA) on a Programmable Desk-top Calculator," Methods in Enzymology, 92, 577-588) of the two antisera were: 1:2,700 and 1:150,000, respectively. The second antiserum was used for subsequent RIA tests.
(§2) ATA was also added to a control peptide, (518-542), and to wells coated with gelatin only. After incubation for 4 hours at 20° C., excess ATA was removed, the wells were washed with TS and attached ATA was determined by double-antibody RIA using serial dilutions of the anti-ATA antiserum. Similar tests were carried out with serum from the same rabbit before immunization with the ATA-BSA conjugate; the corresponding results (100-450 cpm) were subtracted from cpm corresponding to RIA results obtained with the anti-ATA antiserum. For additional assays aimed at determining the binding of ATA to synthetic peptides from gp120 and gp41 of HIV-1 BH 10 and to V3 hypervariable loop peptides from 20 additional HIV-1 isolates, anti-ATA antiserum was used at a final dilution of 1:800.

peptide (492-518) = peptide (492-518) (Human immunodeficiency virus type 1 BH10, UniProt P03375); test: as above; format: binding, HIV-1 BH 10; conditions: FIG. 1C
Method: as §1, §2

gp120 = molecular target: T2, gp120 (Human immunodeficiency virus type 1 BH10, UniProt P03375); test: as above; format: binding, HIV-1 BH 10; conditions: FIG. 2; listed as ATA
T2 construct: cut from Env gp160
Method: as §1, §2

H9 cells = test: Toxicity for cells; format: cell-based; conditions: at the concentrations used
Description: (§3) The combined effects of AZT and ATA, and other compounds shown to be effective in Table 1, hereinbelow, against HIV-1 are also contemplated by the present invention, since synergistic drug combinations would offer means for alleviating toxicity due to AZT, observed in clinical settings. Contemplated combinations include, for example, AZT+ATA, AZT+chlorin e6; AZT+deuteroporphyrin IX, 2,4(4,2) hydroxyethyvinyl; and AZT+meso-tetra(4-carboxyphenyl)porphine.

U937 cells = test: Toxicity for cells; format: cell-based; conditions: at the concentrations used
Description: as §3

MT-2 cells = test: Toxicity for cells; format: cell-based; conditions: at the concentrations used
Description: as §3

O=C(O)C1=CC(=C(c2ccc(O)c(C(=O)O)c2)c2ccc(O)c(C(=O)O)c2)C=CC1=O [substance #122, aurintricarboxylic acid]
inhibition of the interaction with CD4 receptor (CD4 receptor): inhibited the interaction of the CD4 receptor for HIV-1; also recorded: inhibiting the interaction between HIV-1 virions and cellular CD4 receptors | binding of ATA to peptide (anti-ATA antibodies) [1]: most efficient binder of ATA | binding of ATA to peptide (anti-ATA antibodies) (peptide (492-518)): bound to the peptide (492-518) | binding of ATA to gp120 (anti-ATA antibodies) (gp120): reacted with gp120; also recorded: remained bound to gp120 after removal of the excess of the compound | toxicity for H9 cells (H9 cells): lack of toxicity | toxicity for U937 cells (U937 cells): lack of toxicity | toxicity for MT-2 cells (MT-2 cells): lack of toxicity
